Experimental data from patent US11000033B2, “Ketone or oxime compound, and herbicide” (NISSAN CHEMICAL CORPORATION, priority 2014, dated 2021).

Columns and labels:
Type in all cases: in vivo
transplanted rice plant = assay: Test Example 1: effect on crop, application before weed generation in submerged conditions (symbol a); conditions: application herbicide amount 320 g/ha
Method in brief: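 Rice at 2.5 leaf stage transplanted into submerged soil (4 cm depth) sown with three weed species; herbicide applied before weed emergence.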

Scirpus juncoides = assay: Test Example 2: herbicidal activity, application during weed generation in submerged conditions (symbol B); conditions: Table 23; application herbicide amount 320 g/ha; grade 0-5 by criteria of Test Example 1
Method in brief: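 Flooded-soil post-emergence test: emulsion of compound, water-diluted to target rate, applied to paddy water surface at 1–2 leaf stage of mixed-sown weeds (alluvial soil, 4 cm water, 25–30° C. greenhouse); visual rating 3 weeks after application.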

Cyperus difformis = assay: Test Example 3: herbicidal effect by foliage application, Wagner pot (symbol E); conditions: application herbicide amount 320 g/ha
Method in brief: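 Rating at 3 weeks post-spray, by defined criteria. Treatment: emulsion diluted with water to a predetermined amount, applied evenly to foliage of 14-day-old plants raised in alluvial soil flooded 0.1–0.5 cm deep at 25–30 °C, rice co-sown.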

[1] = tested on: Echinochloa crus-galli var. crus-galli; assay: Test Example 4: herbicidal effect by soil treatment (symbol H)
Method in brief: (§1)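 Seeds were sown in sterilized diluvial soil, covered with about 1.5 cm of soil, and the soil surface was sprayed with a water-diluted emulsion of the compound at a predetermined rate. Plants grew in a greenhouse at 25° C. to 30° C.; effects were scored visually 3 weeks after application.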

Apera spica-venti = assay: Test Example 4: herbicidal effect by soil treatment (symbol L)
Method in brief: as §1

Abutilon theophrasti = assay: Test Example 4: herbicidal effect by soil treatment (symbol M)
Method in brief: as §1

Stellaria media = assay: Test Example 4: herbicidal effect by soil treatment (symbol P)
Method in brief: as §1

corn [2] = assay: Test Example 4: effect on crop by soil treatment (symbol c); conditions: for c: corn, effect on crop grade: application herbicide amount 320 g/ha
Method in brief: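 Sterilized diluvial soil, spot sowing, ~1.5 cm soil cover; greenhouse 25–30° C.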

rice = assay: Test Example 4: effect on crop by soil treatment (symbol b); conditions: for b: directly sowed rice plant, effect on crop grade: application herbicide amount 320 g/ha
Method in brief: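 Plants grew in a 25° C. to 30° C. greenhouse after spot-sowing of seeds, including beet, rapeseed, wheat and rice, into sterilized diluvial soil under roughly 1.5 cm of cover soil.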

[3] = tested on: Echinochloa crus-galli var. crus-galli; assay: Test Example 5: herbicidal effect by foliage application, plastic box (symbol H); conditions: 320 g/ha, 3 weeks after application
Method in brief: (§2)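 Post-emergence spray; diluvial soil (sterilized), ~1.5 cm seed cover; greenhouse 25–30° C; 14-day-old plants; water-diluted emulsion at predetermined dose; visual score at 3 wk post-treatment.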

Alopecurus myosuroides = assay: Test Example 5: herbicidal effect by foliage application, plastic box (symbol J); conditions: 320 g/ha, 3 weeks after application
Method in brief: as §2

corn [4] = assay: Test Example 5: effect on crop by foliage application, plastic box (symbol c); conditions: 320 g/ha, 3 weeks after application
Method in brief: (§3)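 Diluvial soil, sterilized and boxed (21 × 13 × 7 cm), received spot-sown seed covered by about 1.5 cm soil; plants were then greenhouse-grown at 25–30° C.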

soybean = assay: Test Example 5: effect on crop by foliage application, plastic box (symbol d); conditions: 320 g/ha, 3 weeks after application
Method in brief: as §3

beet = assay: Test Example 5: effect on crop by foliage application, plastic box (symbol f); conditions: 320 g/ha, 3 weeks after application
Method in brief: as §3

[5] = application herbicide amount 320 g/ha

SMILES | Effect grade on crop, a: transplanted rice plant (transplanted rice plant) | Herbicidal effect grade, B: Scirpus juncoides (Scirpus juncoides) | herbicidal effect on E, grade 0-5 (Cyperus difformis) | H: Echinochloa crus-galli var. crus-galli, herbicidal effect grade [1, 5] | L: Apera spica-venti, herbicidal effect grade (Apera spica-venti; [5]) | M: Abutilon theophrasti, herbicidal effect grade (Abutilon theophrasti; [5]) | P: Stellaria media, herbicidal effect grade (Stellaria media; [5]) | c: corn, effect on crop grade (corn [2]) | b: directly sowed rice plant, effect on crop grade (rice) | H: Echinochloa crus-galli var. crus-galli, herbicidal effect grade [3] | J: Alopecurus myosuroides, herbicidal effect grade (Alopecurus myosuroides) | c: corn, effect on crop grade (corn [4]) | d: soybean, effect on crop grade (soybean) | f: beet, effect on crop grade (beet) | further results
CCOC(=O)C(CC)(C(C)=O)C1CC(O)=C(c2c(C)cc(C)cc2C)C1=O (stereo not shown) [2-012] | 0 (Herbicidal ratio of 5% or lower (almost no effect)) | 0 (Herbicidal ratio of 5% or lower (almost no effect)) | 0 (Herbicidal ratio of 5% or lower (almost no effect)) | 0 (Herbicidal ratio of 5% or lower (almost no effect)) | 0 (Herbicidal ratio of 5% or lower (almost no effect)) | 0 (Herbicidal ratio of 5% or lower (almost no effect)) | 0 (Herbicidal ratio of 5% or lower (almost no effect)) | 0 (Herbicidal ratio of 5% or lower (almost no effect)) | 0 (Herbicidal ratio of 5% or lower (almost no effect)) | 1 (Herbicidal ratio of 5% or higher and lower than 20%) | 1 (Herbicidal ratio of 5% or higher and lower than 20%) | 0 (Herbicidal ratio of 5% or lower (almost no effect)) | 0 (Herbicidal ratio of 5% or lower (almost no effect)) | 0 (Herbicidal ratio of 5% or lower (almost no effect)) | –
CON=C(C)CC1CC(OC(=O)c2ccc(C(F)(F)F)cc2)=C(c2c(C)cc(C)cc2C)C1=O (stereo not shown) [1-149] | 5 (Herbicidal ratio of 90% or more (almost completely withered)) | 4 (Herbicidal ratio of 70% or higher and lower than 90%) | 5 (Herbicidal ratio of 90% or more (almost completely withered)) | – | – | – | – | – | – | – | – | – | – | – | H: Echinochloa crus-galli var. crus-galli, herbicidal effect grade ([1]; 320 g/ha): 5 (Herbicidal ratio of 90% or more (almost completely withered)); L: Apera spica-venti, herbicidal effect grade (Apera spica-venti; 320 g/ha): 5 (Herbicidal ratio of 90% or more (almost completely withered)); M: Abutilon theophrasti, herbicidal effect grade (Abutilon theophrasti; 320 g/ha): 5 (Herbicidal ratio of 90% or more (almost completely withered)); P: Stellaria media, herbicidal effect grade (Stellaria media; 320 g/ha): 0 (Herbicidal ratio of 5% or lower (almost no effect)); c: corn, effect grade on crop (corn [2]; 320 g/ha): 2 (Herbicidal ratio of 20% or higher and lower than 40%); b: directly sowed rice plant, effect grade on crop (rice; 320 g/ha): 5 (Herbicidal ratio of 90% or more (almost completely withered)); H: Echinochloa crus-galli var. crus-galli, herbicidal effect (criteria 0-5) [3]: 5 (Herbicidal ratio of 90% or more (almost completely withered)); J: Alopecurus myosuroides, herbicidal effect (criteria 0-5) (Alopecurus myosuroides): 5 (Herbicidal ratio of 90% or more (almost completely withered)); c: corn, effect on crop (criteria 0-5) (corn [4]): 4 (Herbicidal ratio of 70% or higher and lower than 90%); d: soybean, effect on crop (criteria 0-5) (soybean): 2 (Herbicidal ratio of 20% or higher and lower than 40%); f: beet, effect on crop (criteria 0-5) (beet): 2 (Herbicidal ratio of 20% or higher and lower than 40%)
CON=CC1CC(O)=C(c2c(C)cc(C)cc2C)C1=O (mixture of isomers) [3-001] | 0 (Herbicidal ratio of 5% or lower (almost no effect)) | 0 (Herbicidal ratio of 5% or lower (almost no effect)) | 0 (Herbicidal ratio of 5% or lower (almost no effect)) | 0 (Herbicidal ratio of 5% or lower (almost no effect)) | 5 (Herbicidal ratio of 90% or more (almost completely withered)) | 0 (Herbicidal ratio of 5% or lower (almost no effect)) | 0 (Herbicidal ratio of 5% or lower (almost no effect)) | 0 (Herbicidal ratio of 5% or lower (almost no effect)) | 2 (Herbicidal ratio of 20% or higher and lower than 40%) | 4 (Herbicidal ratio of 70% or higher and lower than 90%) | 3 (Herbicidal ratio of 40% or higher and lower than 70%) | 2 (Herbicidal ratio of 20% or higher and lower than 40%) | 0 (Herbicidal ratio of 5% or lower (almost no effect)) | 0 (Herbicidal ratio of 5% or lower (almost no effect)) | –
Cc1cc(C)c(C2=C(O)CC(CC(=O)Cc3ccccc3)C2=O)c(C)c1 (stereo not shown) [2-015] | 0 (Herbicidal ratio of 5% or lower (almost no effect)) | 0 (Herbicidal ratio of 5% or lower (almost no effect)) | 0 (Herbicidal ratio of 5% or lower (almost no effect)) | 1 (Herbicidal ratio of 5% or higher and lower than 20%) | 3 (Herbicidal ratio of 40% or higher and lower than 70%) | 0 (Herbicidal ratio of 5% or lower (almost no effect)) | 0 (Herbicidal ratio of 5% or lower (almost no effect)) | 0 (Herbicidal ratio of 5% or lower (almost no effect)) | 4 (Herbicidal ratio of 70% or higher and lower than 90%) | 5 (Herbicidal ratio of 90% or more (almost completely withered)) | 5 (Herbicidal ratio of 90% or more (almost completely withered)) | 4 (Herbicidal ratio of 70% or higher and lower than 90%) | 1 (Herbicidal ratio of 5% or higher and lower than 20%) | 0 (Herbicidal ratio of 5% or lower (almost no effect)) | –
CCOC(=O)C(C(=O)Cc1ccccc1)C1CC(O)=C(c2c(C)cc(C)cc2C)C1=O (stereo not shown) [2-011] | 0 (Herbicidal ratio of 5% or lower (almost no effect)) | 0 (Herbicidal ratio of 5% or lower (almost no effect)) | 0 (Herbicidal ratio of 5% or lower (almost no effect)) | 0 (Herbicidal ratio of 5% or lower (almost no effect)) | 0 (Herbicidal ratio of 5% or lower (almost no effect)) | 0 (Herbicidal ratio of 5% or lower (almost no effect)) | 0 (Herbicidal ratio of 5% or lower (almost no effect)) | 0 (Herbicidal ratio of 5% or lower (almost no effect)) | 0 (Herbicidal ratio of 5% or lower (almost no effect)) | 2 (Herbicidal ratio of 20% or higher and lower than 40%) | 1 (Herbicidal ratio of 5% or higher and lower than 20%) | 0 (Herbicidal ratio of 5% or lower (almost no effect)) | 0 (Herbicidal ratio of 5% or lower (almost no effect)) | 0 (Herbicidal ratio of 5% or lower (almost no effect)) | –
